What was measured:
NATA2Δ = NATA2Δ (Arabidopsis thaliana, UniProt Q9ZV06); assay: isothermal titration calorimetry; format: binding
NATA1Δ = NATA1Δ (Arabidopsis thaliana, UniProt Q9ZV05); assay: isothermal titration calorimetry; format: binding
Sequence of NATA1Δ (Q9ZV05 19-228, stated change not applied): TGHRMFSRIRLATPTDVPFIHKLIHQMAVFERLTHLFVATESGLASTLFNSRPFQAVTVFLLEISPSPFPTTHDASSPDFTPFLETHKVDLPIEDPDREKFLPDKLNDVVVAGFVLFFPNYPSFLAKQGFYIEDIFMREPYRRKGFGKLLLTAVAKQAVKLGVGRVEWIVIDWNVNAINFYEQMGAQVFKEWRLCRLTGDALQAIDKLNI

Sequence of NATA2Δ (Q9ZV06 30-236, stated change not applied): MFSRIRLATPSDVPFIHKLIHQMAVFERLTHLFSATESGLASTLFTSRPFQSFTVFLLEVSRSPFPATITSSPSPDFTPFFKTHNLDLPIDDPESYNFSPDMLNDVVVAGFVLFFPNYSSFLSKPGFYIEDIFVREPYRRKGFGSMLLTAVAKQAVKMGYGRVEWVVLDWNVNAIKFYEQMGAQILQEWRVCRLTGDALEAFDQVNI

Kd (NATA2Δ): ~10 µM
Kd (NATA1Δ): ~10 µM
Structure (SMILES): CC(=O)SCCNC(=O)CCNC(=O)[C@H](O)C(C)(C)COP(=O)(O)OP(=O)(O)OC[C@H]1O[C@@H](n2cnc3c(N)ncnc32)[C@H](O)[C@@H]1OP(=O)(O)O [acCoA]

From doi:10.1101/2024.03.04.583282v1 (biorxiv, 2024)
